In ChEMBL document CHEMBL1138020, “Novel fibrinogen receptor antagonists. RGDF mimetics, derivatives of 4-(isoindoline-5-yl)amino-4-oxobutyric acid” (Bioorg Med Chem Lett, 2004):

Tests used:
[1] = biological target: T1, Integrin alpha-IIb/beta-3 (Homo sapiens, UniProt P05106+P08514); assay: In vitro inhibition of FITC-labeled fibrinogen binding to alphaIIb-beta3 receptor of human platelets
[2] = biological target: T1, Integrin alpha-IIb/beta-3; assay: In vitro binding affinity for FITC-labeled fibrinogen binding to alphaIIb-beta3 receptor of human platelets
[3] = In vitro inhibition of Collagen-induced platelet aggregation in canine platelet rich plasma

T1 sequence (P05106 27-788 limits assumed): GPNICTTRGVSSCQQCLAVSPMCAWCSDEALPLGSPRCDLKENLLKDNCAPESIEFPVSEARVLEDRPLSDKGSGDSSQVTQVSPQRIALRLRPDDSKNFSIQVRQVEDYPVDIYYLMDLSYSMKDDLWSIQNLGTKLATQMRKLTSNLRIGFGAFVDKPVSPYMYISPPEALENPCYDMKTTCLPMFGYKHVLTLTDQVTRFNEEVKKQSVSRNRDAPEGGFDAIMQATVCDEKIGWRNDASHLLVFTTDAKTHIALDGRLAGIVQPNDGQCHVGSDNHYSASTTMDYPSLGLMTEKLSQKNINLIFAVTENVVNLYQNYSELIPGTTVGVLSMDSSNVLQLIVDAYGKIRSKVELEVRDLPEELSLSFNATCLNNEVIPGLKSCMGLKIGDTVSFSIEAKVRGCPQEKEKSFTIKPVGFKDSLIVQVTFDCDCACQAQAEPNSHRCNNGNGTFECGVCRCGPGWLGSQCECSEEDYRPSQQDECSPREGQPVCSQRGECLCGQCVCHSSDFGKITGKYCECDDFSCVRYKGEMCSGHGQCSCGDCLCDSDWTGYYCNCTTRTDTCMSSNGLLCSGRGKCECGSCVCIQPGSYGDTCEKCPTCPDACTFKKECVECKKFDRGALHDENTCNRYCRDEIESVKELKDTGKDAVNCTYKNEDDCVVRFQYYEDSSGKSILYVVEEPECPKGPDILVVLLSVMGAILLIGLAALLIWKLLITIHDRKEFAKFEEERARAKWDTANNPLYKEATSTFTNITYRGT
T1 sequence (P08514 32-887 limits assumed): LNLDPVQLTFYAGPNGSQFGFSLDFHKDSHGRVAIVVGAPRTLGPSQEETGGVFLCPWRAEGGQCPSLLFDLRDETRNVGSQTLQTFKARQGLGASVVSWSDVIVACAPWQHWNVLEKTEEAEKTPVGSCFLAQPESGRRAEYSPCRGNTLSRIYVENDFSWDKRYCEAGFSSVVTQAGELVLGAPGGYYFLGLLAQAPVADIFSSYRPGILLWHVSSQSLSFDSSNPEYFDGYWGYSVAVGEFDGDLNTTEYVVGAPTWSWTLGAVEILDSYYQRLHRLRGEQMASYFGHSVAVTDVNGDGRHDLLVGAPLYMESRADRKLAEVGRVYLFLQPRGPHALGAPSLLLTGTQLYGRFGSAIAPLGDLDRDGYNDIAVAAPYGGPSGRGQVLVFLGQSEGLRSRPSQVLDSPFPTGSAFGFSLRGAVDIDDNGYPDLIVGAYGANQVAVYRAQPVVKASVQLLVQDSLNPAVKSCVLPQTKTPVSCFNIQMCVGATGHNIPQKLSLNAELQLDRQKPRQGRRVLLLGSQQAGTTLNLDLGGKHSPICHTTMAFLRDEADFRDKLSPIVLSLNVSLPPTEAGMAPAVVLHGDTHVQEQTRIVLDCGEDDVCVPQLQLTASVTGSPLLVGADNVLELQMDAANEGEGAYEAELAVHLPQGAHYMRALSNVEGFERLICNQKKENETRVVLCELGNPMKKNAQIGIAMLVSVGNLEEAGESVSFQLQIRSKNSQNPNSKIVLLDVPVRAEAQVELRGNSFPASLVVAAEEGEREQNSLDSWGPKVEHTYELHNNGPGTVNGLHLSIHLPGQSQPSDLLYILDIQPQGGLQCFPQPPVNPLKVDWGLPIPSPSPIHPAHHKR
T1 sequence (P08514 891-1039 limits assumed): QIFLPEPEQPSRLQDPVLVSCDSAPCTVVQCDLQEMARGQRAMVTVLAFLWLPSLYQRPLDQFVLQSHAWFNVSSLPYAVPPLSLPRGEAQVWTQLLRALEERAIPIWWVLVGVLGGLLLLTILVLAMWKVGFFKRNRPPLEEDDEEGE

IC50 [1]	Ki [2]	IC50 [3]	SMILES
8.3 nM	4.2 nM	–	O=C(O)CC(NC(=O)CCC(=O)Nc1ccc2c(c1)CNC2)c1ccccc1 (stereo unspecified)
10 nM	7.1 nM	–	O=C(O)CCNC(=O)CCC(=O)Nc1ccc2c(c1)CNC2
–	–	1090 nM	N=C(N)c1ccc(NC(=O)CCC(=O)NCCC(=O)O)cc1
–	–	290 nM	N=C(N)c1ccc(NC(=O)CCC(=O)NC(CC(=O)O)c2ccccc2)cc1 (stereo unspecified)
